The text below walks through data of patent US20180320177A1, “COMPOSITIONS AND METHODS FOR THE TREATMENT OF LIVER FIBROSIS” (UNIVERSITY OF CONNECTICUT, priority 2015, published 2018).

Data set [1] relates to TIC cells. Briefly: TIC cell proliferation (micrograph). It is filed as cell-based. The following applies: 5 μM ICM versus DMSO (FIG. 14E). Here is the method:
Cell culture, Cell transfection:HEK293T, Hela, Hep3B and MHCC97H cells were cultured and transfected using X-tremeGENE™ HP DNA transfection reagent (Roche) as described previously. CGR8 ES cells were cultured on 0.1% gelatin coated tissue-culture dish in knockout DMEM medium containing 15% ES qualified-Fetal Bovine Serum, 2 mM L-glutamin, 0.1 mM NEAA, 0.1 mM β-mercaptoethanol, 50 μg/ml penicillin-streptomycin and 10 ng/ml Leukemia inhibitory factor (LIF). TIC cells were cultured in DMEM-F12 medium containing Embryomax nucleotides, 2 mM L-glutamin, 0.1 mM NEAA, 20 ng/ml mouse EGF, 50 μg/ml penicillin-streptomycin and […].
FIG. 14A is Left, Western blot of HMGB2 and SOX2 protein in HEK293T cells transfected with 0.5 μg […] expression plasmid and 0, 1 or 2 μg Flag-HMGB2 expression plasmid. Right, Western blot of HMGB2 and OCT4 protein in HEK293T cells transfected with 0.5 μg HA-OCT4 expression plasmid and 0, 1 or 2 μg Flag-HMGB2 expression plasmid. […] CGR8 cells were lysed, co-immunoprecipitated with OCT4 antibody, followed by Western blot with HMGB2 or OCT4 antibodies. FIG. 14 C is a luciferase reporter assay. HepG2 cells were infected with AAV8-GFP or AAV8-HMGB2 24 hrs before being transfected with 6*OS luciferase reporter and OCT4, SOX2 expression plasmids alone or in combination.

Data set [2] deals with MMP and Rho signaling. The data set is described as follows: Western blot of MMP and Rho signaling in TIC cells. Conditions: TIC cells (FIG. 7E). It is filed as cell-based. Here is the method:
Western Blotting: Total protein lysates were prepared from livers and cells in lysis buffer containing 50 mM Tris, pH 8.0, 1% Nonidet™ P-40, 150 mM NaCl, 0.5% sodium deoxycholate, 0.1% SDS with protease inhibitors (Thermo Fisher Scientific) and subjected to immunoblotting. Nuclear and cytoplasmic subcellular fractions were prepared using NE-PER nuclear and cytoplasmic extraction reagents (Pierce) according to the manufacturer's instructions. The blot was incubated with a primary antibody, followed by a secondary antibody conjugated to horseradish peroxidase. ECL kit (Pierce) was used to detect the reactivity. The following antibodies were obtained from Cell Signaling Technology: HMGB2, HMGB1, AKT, p-AKT, mTOR, p-mTOR, ERK1/2, pERK1/2, Raptor, Rictor, p53, p21, p-Bad, Smad4, p-Smad2/3, Lamin A/C, a-SMA, MMP2, MMP9, TIMP1, RhoA, Rho-GTP, Cdc42, Rac1/2/3. Anti-HA antibody and anti-beta actin antibody were purchased from Sigma and Santa Cruz Biotechnology, respectively.
Cell Lines The LX-2 human stellate cell line was maintained in Dulbecco's Modified Eagle's Medium (DMEM) supplemented with 2% fetal bovine serum (FBS), 100 IU/ml penicillin, and 100 μg/ml streptomycin. Human hepatocellular carcinoma (HCC) MHCC97H cells were maintained in DMEM supplemented with 10% FBS, 100 IU/ml penicillin, and 100 μg/ml streptomycin, 1 mM HEPES, 1 mM sodium pyruvate, 2 mM L-glutamine. Tumor-initiating (TIC) cells were obtained from Dr. Hidekazu Tsukamoto at University of Southern California and were maintained in 1:1 DMEM:F12 supplement with 100 U/ml penicillin and 100 μg/ml streptomycin, 2 mM glutamine, 20 ng/ml mouse EGF, 10 nM dexamethasone, 1× embryomax nucleotides. All the cells were maintained at 37° C. humidified atmosphere with 5% CO2. TIC cells were infected with Hmgb2 shRNA lentivirus for 48 hr, and treated with 500 ng/ml puromycin for 2 weeks. The stable cells were used for migration and invasion assay, as well as western blot.

Data set [3] concerns CCl4-induced inflammation. Briefly: CCl4-induced inflammation in mouse liver. It is filed as in vivo. The following applies: CCl4-treated mice (FIG. 4C, 4D). How it is done: Animal Care: All animal care and experimental procedures were approved by the Institutional Animal Care and Use Committee at the University of Connecticut. Shp^−/− mice were described previously. Hmgb2^−/− mice were obtained from Dr. Stella Tsirka at Stony Brook University. C57BL/6J mice were purchased from Jackson Laboratory. All mice were maintained on a 12-h light/dark cycle with free access to food and water unless otherwise indicated. For CCl4 treatment, CCl4 (Sigma) was dissolved in corn oil and administered to mice at a dose of 850 μl/kg BW by intraperitoneal injection (IP) twice a week for 6 or 10 weeks with or without ICM. Age-matched control mice were treated with a corn oil vehicle. For CCl4+ICM treatment, mice were treated with CCl4 for 2 weeks and then ICM (Department of Pharmaceutical Sciences at UConn) was dissolved in PEG (Sigma) and treated with mice (10 mg/kg) every day for 4 or 8 weeks in combination with CCl4. To induce overexpression of HMGB2 in liver, AAV8-Hmgb2 or a control AAV8-GFP was given to mice by tail vein injection at a dose of 5×10^10 GC. To knockdown HMGB2 in mouse livers, AAV-shHmgb2 or a control AAV-shGFP was delivered to mice at a dose of 2×10^10 GC by tail vein injection. One week later, mice injected with AAVs were treated with CCl4 or CCl4 +ICM as described above and sacrificed. […]

In the case of `CC1(C)Oc2cc(O)ccc2C2C1=CCn1c(=O)n(-c3ccccc3)c(=O)n12` (stereo not shown) [ICM, inflachromene], the TIC cell proliferation entry in data set [1] is recorded as “decreases TIC cell proliferation”. Besides, in data set [2], the MMP signaling entry was “decreased” and the Rho signaling entry is “decreased”. Besides, in data set [3], the inflammatory response result is on record as “decrease inflammatory response”.

As for “shHMGB2: small hairpin RNA against HMGB2 (SEQ ID NO: 8), delivered by AAV or lentivirus (CCGGGCTCAACATTAGCTTCAGTATCTCGAGATACTGAAGCTAATGTTGAGCTTTTTG)”, in data set [2], the MMP signaling entry was “decreased” and the Rho signaling entry is reported as “decreased”. The inflammatory response entry in data set [3] is “decrease inflammatory response”.
